{"source": "paper PMC10709440", "about": "“High-throughput ligand profile characterization in novel cell lines expressing seven heterologous insect olfactory receptors for the detection of volatile plant biomarkers” (Scientific Reports, 2023)", "key": {"Drosophila OR13a": {"biological_target": "T1, Drosophila OR13a (Drosophila melanogaster, UniProt Q9VXL0)", "T1 construct": "expressed in transfected cells", "T1 sequence (Q9VXL0 1-418)": "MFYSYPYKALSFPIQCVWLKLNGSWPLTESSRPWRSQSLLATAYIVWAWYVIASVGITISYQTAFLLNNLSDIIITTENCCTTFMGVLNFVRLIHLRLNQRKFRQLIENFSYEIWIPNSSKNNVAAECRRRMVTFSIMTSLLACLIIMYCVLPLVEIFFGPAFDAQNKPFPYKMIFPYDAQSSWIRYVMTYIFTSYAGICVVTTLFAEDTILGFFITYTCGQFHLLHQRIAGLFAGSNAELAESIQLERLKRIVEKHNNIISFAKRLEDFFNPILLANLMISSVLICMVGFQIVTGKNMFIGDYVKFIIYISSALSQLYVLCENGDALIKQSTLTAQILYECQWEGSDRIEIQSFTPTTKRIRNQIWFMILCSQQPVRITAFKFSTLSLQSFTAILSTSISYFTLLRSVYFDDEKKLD", "T1 sequence (Q9VNB5 1-486 partner)": "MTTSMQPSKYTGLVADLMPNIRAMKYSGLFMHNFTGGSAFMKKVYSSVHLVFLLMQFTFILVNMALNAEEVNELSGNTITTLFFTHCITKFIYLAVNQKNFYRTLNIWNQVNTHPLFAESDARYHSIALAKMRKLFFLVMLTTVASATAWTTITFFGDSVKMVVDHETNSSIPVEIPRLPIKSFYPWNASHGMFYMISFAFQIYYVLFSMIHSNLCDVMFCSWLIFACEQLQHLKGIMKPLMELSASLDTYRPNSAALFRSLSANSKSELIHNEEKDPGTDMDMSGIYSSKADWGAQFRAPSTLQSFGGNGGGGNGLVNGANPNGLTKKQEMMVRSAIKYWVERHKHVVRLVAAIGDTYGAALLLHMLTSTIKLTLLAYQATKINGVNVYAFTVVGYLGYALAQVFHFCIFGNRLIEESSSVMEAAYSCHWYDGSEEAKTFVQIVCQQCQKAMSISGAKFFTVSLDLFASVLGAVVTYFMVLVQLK", "assay": "cell-based", "set-up": "GCaMP6 calcium fluorescence in stable HEK293 OR+ORCO lines; peak dF normalised to 50 uM VUAA1 (=1)", "conditions": "HEK293; relative to 50 uM VUAA1 response; below 0.05 set to 0; read-out: % activation", "experimental": "Twelve thousand to 18,000 cells were plated into each well of a black wall, transparent bottom 384-well microplate (Greiner) 48 h or 72 h before the measurements and were simultaneously treated with 1 μg/mL doxycycline. […] The plate has 24 columns, thus we could record responses in up to eight different cell lines in each plate. On the day of the experiment, the growth medium was replaced with 20 µL assay buffer/well (140 mM NaCl, 5 mM KCl, 2 mM CaCl2, 1 mM MgCl2, 5 mM HEPES-Na, 20 mM glucose, pH 7.3, 340 mOsm). […] Baseline fluorescence (F0) was recorded for 5 s, after which 7 µL VOC buffer (140 mM NaCl, 5 mM KCl, 2 mM CaCl2, 1 mM MgCl2, 5 mM HEPES-Na, 31 mM glucose, 0.1% DMSO, pH 7.3, 340 mOsm) was injected into each well in one row and the fluorescence response was recorded for an additional 30 s, at a rate of one read/sec. VOC solutions (VOC buffer with 4× concentration of the final measured VOC concentration, 9 µL/well was injected) were measured on the same wells in a second round with the same protocol. Each individual concentration of a specific VOC sample was recorded in three wells for the same cell line on the same microplate. The raw data were exported in xls file format, F0 and FMAX values, and the fluorescence intensity changes (∆F) were calculated in Excel (Microsoft) (Supplementary file Data summary.xlsx) using the following equation: ΔF=FMAX-F0/F0 (see also Fig. 1C). On each plate, we recorded the response of each cell line to 50 µM VUAA1. The average of these ∆F values of each cell line were used to calculate the VUAA1-normalized values for the rest of the plate, by dividing VOC response ∆F values by the average VUAA1 response ∆F value of the corresponding OR cell line. Each VOC-OR combination was measured three times as tec The recorded FMAX, F0, ∆F, VUAA1-normalized ∆F values, as well as the OR name, the name of the tested sample, and the final concentration for each well were copied into supplementary file Data summary.xlsx, that was used to summarize all the plates recorded. Here, the averages of the measurements were calculated for each receptor-VOC-concentration combination. […] Each VOC was measured at 1, 10, and 100 µM final concentration on each receptor. VUAA1-normalized response was calculated as described in methods."}, "OR85b receptor": {"biological_target": "OR85b receptor", "conditions": "cited from earlier work"}, "OR47a": {"system": "OR47a", "conditions": "similar system to Xenopus oocytes, cited from earlier work"}}, "note": "Read-outs that look alike come from different tables or passages of the source.", "data": [{"smiles": "C=C(C)C1CCC2(C)OC2C1", "note": "(single isomer, unassigned; (+)) [(+)-limonene oxide]", "values": [{"measurement": "activity at 1 µM", "setting": "Drosophila OR13a", "result": 0, "unit": "%"}, {"measurement": "activity at 10 µM", "setting": "Drosophila OR13a", "result": 0, "unit": "%"}, {"measurement": "activity at 100 µM", "setting": "Drosophila OR13a", "result": 0, "unit": "%"}]}, {"smiles": "CCCCCC(C)=O", "note": "[2-heptanone]", "values": [{"measurement": "EC50", "setting": "OR85b receptor; OR85b in Xenopus oocytes, Nichols and Luetje, read-out: EC50", "result": "70 ± 20", "unit": "µM"}, {"measurement": "EC50", "setting": "OR85b receptor; OR85b, Misawa et al., read-out: average EC50", "result": 45.6, "unit": "µM"}]}, {"smiles": "C=C1CC[C@@]23C[C@@H]1C(C)(C)[C@@H]2CC[C@H]3C", "note": "[(+)-beta-cedrene]", "values": [{"measurement": "activity at 1 µM", "setting": "Drosophila OR13a", "result": 0, "unit": "%"}, {"measurement": "activity at 10 µM", "setting": "Drosophila OR13a", "result": 0, "unit": "%"}, {"measurement": "activity at 100 µM", "setting": "Drosophila OR13a", "result": 0, "unit": "%"}]}, {"smiles": "C=C1[C@H]2CC[C@@H]3[C@H]2C(C)(C)CCC[C@]13C", "note": "[(+)-longifolene]", "values": [{"measurement": "activity at 1 µM", "setting": "Drosophila OR13a", "result": 0, "unit": "%"}, {"measurement": "activity at 10 µM", "setting": "Drosophila OR13a", "result": 0, "unit": "%"}, {"measurement": "activity at 100 µM", "setting": "Drosophila OR13a", "result": 0, "unit": "%"}]}, {"smiles": "C=C(C)[C@H]1CC=C(C)CC1", "note": "[(R)-(+)-limonene]", "values": [{"measurement": "activity at 1 µM", "setting": "Drosophila OR13a", "result": 0, "unit": "%"}, {"measurement": "activity at 10 µM", "setting": "Drosophila OR13a", "result": 0, "unit": "%"}, {"measurement": "activity at 100 µM", "setting": "Drosophila OR13a", "result": 0, "unit": "%"}]}, {"smiles": "CCCCCOC(C)=O", "note": "[pentyl acetate]", "values": [{"measurement": "EC50", "setting": "OR47a; ref 34, read-out: calculated EC50", "result": "30.8 ± 1.28", "unit": "µM"}, {"measurement": "EC50", "setting": "OR47a; ref 39, read-out: calculated EC50", "result": "10.7 ± 2", "unit": "µM"}]}]}
